Assay results published in US7452887B2, “Quinoline- and isoquinoline-based compounds exhibiting ATP-utilizing enzyme inhibitory activity, and compositions, and uses thereof” (Amphora Discovery Corporation, priority 2004, dated 2008).

Tests used:
Test in all cases: HTS ATP-utilizing enzyme assay, off-chip mobility-shift (Caliper HTS 250)
Assay type in all cases: biochemical
Conditions in all cases: test compound 10 μM, kinase listed = active (greater than six-sigma from the mean activity of inactive compounds)
CHEK2 = CHEK2 (Homo sapiens, UniProt O96017)
Source text: (§1) The following procedures describe the reagent and plate preparation for a HTS of an ATP-utilizing enzyme, such as a protein kinase, run in an off-chip mobility-shift assay format. The following provides an HTS protocol for running a protein kinase HTS screen on a Caliper HTS 250 microfluidics system. The following parameters are dependent on the protein kinase used and can be determined by one skilled in the art as part of a typical assay development process. For example, the peptide substrate used can be identified from the current literature, by screening a peptide library of potential protein kinase substrates, or by other applicable means accepted in the field.
(§2) The following table provides typical screen assay parameters appropriate for a Caliper HTS 250 microfluidics system.
(§3) The reagents and buffers listed in the following table are generally applicable for developing and running an HTS screen on a human protein kinase using the Caliper HTS 250 system.
(§4) The following reagents were prepared using the previously described buffers.
(§5) A 2× Master Buffer solution was prepared by combining 200 mL of 1 M HEPES, pH 7.5, 2 mL of 10% Triton X-100, 20 mL of 10% BSA, and 778 mL of H2O.
(§6) A 2.5× Substrate Buffer solution was prepared by combining 177.408 mL of 2× Master Buffer, 0.887 mL of 1 mM peptide-X, and 176.521 mL of H2O.
(§7) A 1.55× Termination Buffer solution was prepared by combining 762.05 mL of 2× Master Buffer, 95.1 mL of 0.5 M EDTA, and 666.94 mL of H2O.
(§8) A TCB Buffer solution was prepared by combining 125 mL of 2× Master Buffer, 10 mL of 0.5 M EDTA, 6.25 mL of 4% coating reagent, 1.01 mL of 100% DMSO, and 107.74 mL H2O.
(§9) A Dye Trough solution was prepared by combining 0.5 μL of peptide-X, and 2,999.5 μL of IX Master Buffer.
(§10) A 1.06× Assay Buffer solution was prepared by combining 205.15 mL of 2× Master Buffer, and 181.92 mL of H2O.
(§11) Assays to determine the kinase inhibitory activity of compounds of the present disclosure were performed using a Caliper HTS 250 microfluidics device, Greiner U-bottom assay plates, a Multidrop for transfer of reagents, and Biomek FX (AMNCBM03) software. Initially, 2.4 μL of a 1 mM solution of a test compound in 100% DMSO was added to a well of the Greiner U-bottom plate. A single Greiner U-bottom plate having 24×16 wells could include multiple test compounds. Next, […] of 1.06× Assay Buffer was added to each well of the assay plate. Using the Biomek FX, 10 μL of 0.5 M EDTA was added by the span-8 to wells, indicated as 100% Control and 2.4 μL of 100% DMSO was added by the span-8 to wells, indicated as 0% Control. Using the Multidrop, 10 μL of 2.5× Enzyme Buffer, followed by 10 μL of 2.5× Substrate Buffer was added to each well of the assay plate. The total reaction volume in each well was 25 μL, and the concentration of the test compound was 10 μM. The assay plate was incubated for 2.5 hrs at 20° C. to 22° C. After the incubation period, using the Multidrop, 45 μL of 1.55× Termination Buffer was added to each well of the assay plate to stop the reaction. The inhibition of the ATP-utilizing enzyme, such as a particular protein kinase, was determined by measuring the ratio of the peptide substrate to phosphorylated product for each well of the assay plate using the Caliper HTS 250 system.
(§12) The use of six-sigma statistical limits represents a conservative method for declaring potential hits among targets. The six-sigma activity, as well as the mean population activity, can be different for each target enzyme. This method has an expected false positive rate, from an in-control measurement process, of one in one million.

PRAK = target: T1, PRAK (Homo sapiens, UniProt Q8IW41)
T1 sequence (Q8IW41 1-473): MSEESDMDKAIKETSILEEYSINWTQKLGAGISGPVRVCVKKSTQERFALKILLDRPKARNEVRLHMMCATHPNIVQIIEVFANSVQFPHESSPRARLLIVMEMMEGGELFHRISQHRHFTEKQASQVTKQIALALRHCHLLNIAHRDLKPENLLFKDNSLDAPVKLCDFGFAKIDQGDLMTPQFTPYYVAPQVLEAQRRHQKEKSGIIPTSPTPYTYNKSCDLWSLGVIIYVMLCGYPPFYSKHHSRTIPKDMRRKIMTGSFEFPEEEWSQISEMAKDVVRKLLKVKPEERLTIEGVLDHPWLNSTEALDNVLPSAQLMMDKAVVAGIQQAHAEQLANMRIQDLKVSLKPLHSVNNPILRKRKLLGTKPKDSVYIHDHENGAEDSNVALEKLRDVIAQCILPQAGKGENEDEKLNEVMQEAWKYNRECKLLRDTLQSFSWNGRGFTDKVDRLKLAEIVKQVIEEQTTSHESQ
Source text: as §1, §2, §3, §4, §5, §6, §7, §8, §9, §10, §11, §12

MAPKAPK2 = MAPKAPK2 (Homo sapiens, UniProt P49137)
Summary of the method: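 Phosphorylation of a peptide substrate was quantified by Caliper mobility-shift separation of substrate and product after 2.5 h at 20-22 °C, with compounds tested at 10 μM. Inhibition was normalized to EDTA-quenched (100%) and DMSO (0%) controls; six-sigma thresholds flagged actives.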

C-TAK1 = C-TAK1 (Homo sapiens, UniProt P27448)
Source text: as §1, §2, §3, §4, §5, §6, §7, §8, §9, §10, §11, §12

NEK2 = target: T2, NEK2 (Homo sapiens, UniProt P51955)
T2 sequence (P51955 1-445): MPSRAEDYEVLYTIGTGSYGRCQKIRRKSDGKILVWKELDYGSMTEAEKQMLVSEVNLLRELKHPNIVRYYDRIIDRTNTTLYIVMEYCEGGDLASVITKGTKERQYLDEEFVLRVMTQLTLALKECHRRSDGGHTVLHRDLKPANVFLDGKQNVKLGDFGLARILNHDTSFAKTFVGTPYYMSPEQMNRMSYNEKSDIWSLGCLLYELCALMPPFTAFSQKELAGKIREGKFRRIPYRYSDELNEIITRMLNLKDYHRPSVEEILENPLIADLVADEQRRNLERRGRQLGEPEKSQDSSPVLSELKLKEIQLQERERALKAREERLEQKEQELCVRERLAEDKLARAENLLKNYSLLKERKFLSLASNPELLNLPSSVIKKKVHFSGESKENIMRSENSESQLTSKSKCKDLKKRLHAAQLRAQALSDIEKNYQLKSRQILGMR
Source text: as §1, §2, §3, §4, §5, §6, §7, §8, §9, §10, §11, §12

KIT = KIT (Homo sapiens, UniProt P10721)
Source text: as §1, §2, §3, §4, §5, §6, §7, §8, §9, §10, §11, §12

DYRK2 = target: T3, DYRK2 (Homo sapiens, UniProt Q92630)
T3 sequence (Q92630 1-601): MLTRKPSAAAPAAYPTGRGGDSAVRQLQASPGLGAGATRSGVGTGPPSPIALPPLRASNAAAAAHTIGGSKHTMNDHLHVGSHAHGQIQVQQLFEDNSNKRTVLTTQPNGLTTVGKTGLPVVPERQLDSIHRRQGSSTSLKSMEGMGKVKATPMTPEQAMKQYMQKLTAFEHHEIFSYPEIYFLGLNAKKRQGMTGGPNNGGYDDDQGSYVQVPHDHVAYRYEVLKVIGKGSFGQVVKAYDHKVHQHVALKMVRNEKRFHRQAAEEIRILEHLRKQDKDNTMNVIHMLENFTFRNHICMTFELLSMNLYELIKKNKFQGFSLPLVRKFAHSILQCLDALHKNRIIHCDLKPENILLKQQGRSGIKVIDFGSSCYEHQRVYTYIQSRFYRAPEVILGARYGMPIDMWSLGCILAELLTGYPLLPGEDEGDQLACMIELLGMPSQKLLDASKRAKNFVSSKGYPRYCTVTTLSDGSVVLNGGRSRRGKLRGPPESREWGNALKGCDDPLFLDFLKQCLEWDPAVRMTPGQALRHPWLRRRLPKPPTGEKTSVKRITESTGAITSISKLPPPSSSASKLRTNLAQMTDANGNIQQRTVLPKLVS
Source text: as §1, §2, §3, §4, §5, §6, §7, §8, §9, §10, §11, §12

Chain of CHEK2 (O96017 whole entry): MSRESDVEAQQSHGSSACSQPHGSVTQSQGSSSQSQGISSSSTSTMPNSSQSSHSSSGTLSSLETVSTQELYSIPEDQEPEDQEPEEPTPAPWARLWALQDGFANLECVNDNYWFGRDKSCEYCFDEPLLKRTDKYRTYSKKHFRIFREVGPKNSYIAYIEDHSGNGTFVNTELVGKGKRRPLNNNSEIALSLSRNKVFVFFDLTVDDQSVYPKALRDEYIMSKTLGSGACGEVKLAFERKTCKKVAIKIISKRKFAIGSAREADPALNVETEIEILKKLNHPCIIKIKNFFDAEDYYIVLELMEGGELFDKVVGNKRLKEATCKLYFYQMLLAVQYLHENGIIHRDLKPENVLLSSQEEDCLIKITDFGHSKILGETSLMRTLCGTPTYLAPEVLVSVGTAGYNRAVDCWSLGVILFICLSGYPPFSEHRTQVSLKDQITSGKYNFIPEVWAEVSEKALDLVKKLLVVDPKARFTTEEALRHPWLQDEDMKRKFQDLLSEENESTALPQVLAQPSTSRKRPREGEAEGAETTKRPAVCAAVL
Chain of KIT (P10721 26-976): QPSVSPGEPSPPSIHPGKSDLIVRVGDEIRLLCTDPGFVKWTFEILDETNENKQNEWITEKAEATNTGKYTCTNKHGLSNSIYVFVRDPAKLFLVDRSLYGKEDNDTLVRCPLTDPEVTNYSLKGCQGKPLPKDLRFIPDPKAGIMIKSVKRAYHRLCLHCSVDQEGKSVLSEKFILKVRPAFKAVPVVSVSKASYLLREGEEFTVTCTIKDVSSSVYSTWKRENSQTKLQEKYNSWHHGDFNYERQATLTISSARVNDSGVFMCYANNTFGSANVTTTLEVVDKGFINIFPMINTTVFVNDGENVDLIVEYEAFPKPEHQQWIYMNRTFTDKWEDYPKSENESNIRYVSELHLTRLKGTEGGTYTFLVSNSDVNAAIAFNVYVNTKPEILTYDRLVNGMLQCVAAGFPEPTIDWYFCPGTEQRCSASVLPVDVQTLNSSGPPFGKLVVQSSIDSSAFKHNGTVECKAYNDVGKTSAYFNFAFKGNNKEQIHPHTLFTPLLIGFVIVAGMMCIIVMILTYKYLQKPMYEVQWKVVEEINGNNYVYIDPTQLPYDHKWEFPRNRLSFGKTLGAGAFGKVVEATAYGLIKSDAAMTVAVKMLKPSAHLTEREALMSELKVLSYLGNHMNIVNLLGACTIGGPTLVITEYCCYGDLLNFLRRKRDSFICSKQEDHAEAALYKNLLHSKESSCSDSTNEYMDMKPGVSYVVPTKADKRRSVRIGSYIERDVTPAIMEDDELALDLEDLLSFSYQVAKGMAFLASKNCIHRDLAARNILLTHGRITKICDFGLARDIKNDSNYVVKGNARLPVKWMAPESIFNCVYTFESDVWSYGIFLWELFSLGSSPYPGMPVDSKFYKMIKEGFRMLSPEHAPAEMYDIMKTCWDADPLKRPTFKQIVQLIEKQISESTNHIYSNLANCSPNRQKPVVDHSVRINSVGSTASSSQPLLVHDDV
Chain of MAPKAPK2 (P49137 whole entry): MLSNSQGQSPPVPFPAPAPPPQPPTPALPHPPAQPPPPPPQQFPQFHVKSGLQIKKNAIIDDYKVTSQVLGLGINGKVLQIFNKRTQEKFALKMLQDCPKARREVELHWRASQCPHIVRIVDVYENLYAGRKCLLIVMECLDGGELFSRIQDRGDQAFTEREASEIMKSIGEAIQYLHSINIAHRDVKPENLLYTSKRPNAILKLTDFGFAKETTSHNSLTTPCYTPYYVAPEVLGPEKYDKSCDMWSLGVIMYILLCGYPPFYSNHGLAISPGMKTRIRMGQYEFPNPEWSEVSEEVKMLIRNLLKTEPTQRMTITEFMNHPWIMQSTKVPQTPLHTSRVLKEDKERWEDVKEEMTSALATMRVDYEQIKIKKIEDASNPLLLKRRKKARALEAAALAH
Chain of C-TAK1 (P27448 whole entry): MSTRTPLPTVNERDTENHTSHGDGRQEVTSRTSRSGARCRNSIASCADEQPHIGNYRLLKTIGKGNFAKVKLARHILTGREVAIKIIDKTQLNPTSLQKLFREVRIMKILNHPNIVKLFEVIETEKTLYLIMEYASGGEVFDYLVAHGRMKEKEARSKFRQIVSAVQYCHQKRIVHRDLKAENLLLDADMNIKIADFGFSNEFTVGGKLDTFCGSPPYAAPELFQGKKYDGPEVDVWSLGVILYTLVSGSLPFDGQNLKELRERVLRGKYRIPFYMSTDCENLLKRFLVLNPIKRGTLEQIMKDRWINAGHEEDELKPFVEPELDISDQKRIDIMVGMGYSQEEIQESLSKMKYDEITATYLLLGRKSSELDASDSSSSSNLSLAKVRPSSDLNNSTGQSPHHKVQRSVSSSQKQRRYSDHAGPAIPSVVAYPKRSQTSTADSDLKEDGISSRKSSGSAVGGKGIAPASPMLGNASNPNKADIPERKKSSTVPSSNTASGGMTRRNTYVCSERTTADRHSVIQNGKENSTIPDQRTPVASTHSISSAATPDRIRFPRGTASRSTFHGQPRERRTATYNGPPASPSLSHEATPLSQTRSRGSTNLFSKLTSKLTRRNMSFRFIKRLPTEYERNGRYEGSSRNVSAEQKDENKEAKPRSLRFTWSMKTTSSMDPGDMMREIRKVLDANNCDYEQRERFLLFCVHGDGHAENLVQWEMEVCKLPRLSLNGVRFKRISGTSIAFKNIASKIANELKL

Compound | Activity (CHEK2) | Activity (PRAK) | Activity (MAPKAPK2) | Activity (C-TAK1) | Activity (NEK2) | Activity (KIT) | Activity (DYRK2)
CN1CCN(c2ccc(Nc3ccnc4ccc(-c5ccco5)cc34)cc2)CC1 [6-(furan-2-yl)-N-(4-(4-methylpiperazin-1-yl)phenyl)quinolin-4-amine] | CHEK2 | PRAK | MAPKAPK2 | – | – | – | –
CCSc1ccc(-c2ccc3nccc(Nc4ccc(N5CCN(C)CC5)cc4)c3c2)cc1 [6-(4-(ethylthio)phenyl)-N-(4-(4-methylpiperazin-1-yl)phenyl)quinolin-4-amine] | – | PRAK | MAPKAPK2 | C-TAK1 | NEK2 | – | –
Cc1csc(-c2ccc3nccc(Nc4ccc(N5CCN(C)CC5)cc4)c3c2)c1 [N-(4-(4-methylpiperazin-1-yl)phenyl)-6-(4-methylthiophen-2-yl)quinolin-4-amine] | CHEK2 | PRAK | MAPKAPK2 | – | NEK2 | – | –
CN(C)C1CCN(c2ccc(Nc3ccnc4ccc(-c5ccc(C#N)cc5)cc34)cc2)CC1 [4-(4-(4-(4-(dimethylamino)piperidin-1-yl)phenylamino)quinolin-6-yl)benzonitrile] | – | – | – | – | – | KIT | –
COc1ccc(-c2ccc3nccc(Nc4ccc(N5CCN(C)CC5)cc4)c3c2)cc1OC [6-(3,4-dimethoxyphenyl)-N-(4-(4-methylpiperazin-1-yl)phenyl)quinolin-4-amine] | – | PRAK | MAPKAPK2 | – | NEK2 | – | DYRK2
CN1CCN(c2ccc(Nc3ccnc4ccc(-c5ccc(Oc6ccccc6)cc5)cc34)cc2)CC1 [N-(4-(4-methylpiperazin-1-yl)phenyl)-6-(4-phenoxyphenyl)quinolin-4-amine] | – | PRAK | MAPKAPK2 | C-TAK1 | – | – | –
C=Cc1ccc(-c2ccc3nccc(Nc4ccc(N5CCN(C)CC5)cc4)c3c2)cc1 [N-(4-(4-methylpiperazin-1-yl)phenyl)-6-(4-vinylphenyl)quinolin-4-amine] | CHEK2 | PRAK | MAPKAPK2 | – | NEK2 | – | –
COc1ccc(-c2ccc3nccc(Nc4ccc(N5CCN(C)CC5)cc4)c3c2)cc1 [6-(4-methoxyphenyl)-N-(4-(4-methylpiperazin-1-yl)phenyl)quinolin-4-amine] | – | PRAK | MAPKAPK2 | – | NEK2 | – | DYRK2
COc1ccc(-c2ccc3nccc(Nc4ccc(N5CCN(CCN(C)C)CC5)cc4)c3c2)cc1 [N-(4-(4-(2-(dimethylamino)ethyl)piperazin-1-yl)phenyl)-6-(4-methoxyphenyl)quinolin-4-amine] | – | – | MAPKAPK2 | C-TAK1 | – | – | DYRK2
N#Cc1ccc(-c2ccc3nccc(Nc4ccc(C5CCNCC5)cc4)c3c2)cc1 [4-(4-(4-(piperidin-4-yl)phenylamino)quinolin-6-yl)benzonitrile] | – | – | – | – | – | KIT | –
Cc1cc(-c2ccc3nccc(Nc4ccc(N5CCN(C)CC5)cc4)c3c2)ccc1F [6-(4-fluoro-3-methylphenyl)-N-(4-(4-methylpiperazin-1-yl)phenyl)quinolin-4-amine] | – | PRAK | MAPKAPK2 | C-TAK1 | NEK2 | – | –
COc1cccc(-c2ccc3nccc(Nc4ccc(N5CCN(C)CC5)cc4)c3c2)c1 [6-(3-methoxyphenyl)-N-(4-(4-methylpiperazin-1-yl)phenyl)quinolin-4-amine] | – | PRAK | – | – | NEK2 | – | DYRK2
CC(C)N1CCN(c2ccc(Nc3ccnc4ccc(-c5ccccc5)cc34)cc2)CC1 [N-(4-(4-isopropylpiperazin-1-yl)phenyl)-6-phenylquinolin-4-amine] | – | – | MAPKAPK2 | – | – | KIT | –
COc1ccc(-c2ccc3nccc(Nc4ccc(N5CCN(CCCO)CC5)cc4)c3c2)cc1 [3-(4-(4-(6-(4-methoxyphenyl)quinolin-4-ylamino)phenyl)piperazin-1-yl)propan-1-ol] | – | – | MAPKAPK2 | – | – | – | DYRK2
CN1CCN(c2ccc(Nc3ccnc4ccc(-c5cccc(-c6ccccc6)c5)cc34)cc2)CC1 [6-(biphenyl-3-yl)-N-(4-(4-methylpiperazin-1-yl)phenyl)quinolin-4-amine] | – | PRAK | MAPKAPK2 | C-TAK1 | – | – | –
CCOc1cccc(-c2ccc3nccc(Nc4ccc(N5CCN(C)CC5)cc4)c3c2)c1 [6-(3-ethoxyphenyl)-N-(4-(4-methylpiperazin-1-yl)phenyl)quinolin-4-amine] | CHEK2 | PARK | MAPKAPK2 | – | NEK2 | – | –
